Assay results taken from US4720543A, “1a-7-substituted derivatives of mitomycin and uses thereof” (priority 1985, dated 1988).

Experiments:
Experiment in all cases: antibiotic activity, bacterial growth inhibition in culture
Format in all cases: cell-based
Klebsiella Pneumonia = tested on: Klebsiella Pneumonia
Experimental: (§1) Bacteria were grown in a standard growth culture at pH 7.2. After the cultures were incubated at 37° C. overnight and diluted into fresh medium, controls and the test antibiotics dissolved in 0.3% hydroxy propylcellulose (HPC) were added at various concentrations and then reincubated overnight. The measure of antibiotic activity was determined by the amount of bacterial growth inhibition as shown by measurement of the optical density at 660 nm.

Listeria Sp. = tested on: Listeria Sp.
Experimental: as §1

Pseudomonas Sp. = tested on: Pseudomonas Sp.
Experimental: as §1

Staphylococcus Sp. = tested on: Staphylococcus Sp.
Experimental: as §1

TA100 (Salmonella Sp.) = tested on: TA100 (Salmonella Sp.)
Experimental: as §1

W3100 (E. coli) = details: 0.04 mcg/ml
Experimental: as §1

CO[C@@]12[C@H](COC(N)=O)C3=C(C(=O)C(C)=C(N)C3=O)N1C[C@H]1[C@@H]2N1C(=S)N[C@@H]1O[C@H](COC(C)=O)[C@@H](OC(C)=O)[C@H](OC(C)=O)[C@H]1NC(C)=O [M-TAG, 1a(N-2-acetamido-3,4,6-tri-O-acetyl-2-deoxy-D-glucopyranosylthiocarbamoyl)-mitomycin C]
optical density at 660 nm (figure in parentheses) (Klebsiella Pneumonia; 0.04 mcg/ml): 0.66
optical density at 660 nm (figure in parentheses) (Klebsiella Pneumonia; 0.4 mcg/ml): 0.62
optical density at 660 nm (figure in parentheses) (Klebsiella Pneumonia; 4.0 mcg/ml): 0.59
optical density at 660 nm (figure in parentheses) (Klebsiella Pneumonia; 40 mcg/ml): 0.40
optical density at 660 nm (figure in parentheses) (Klebsiella Pneumonia; 400 mcg/ml): 0.04
inhibition at 0.04 µg/mL (Klebsiella Pneumonia; Klebsiella pneumoniae, 0.04 mcg/ml, 37° C. overnight, read-out: amount of bacterial growth inhibition (first figure)): 22%
inhibition at 0.4 µg/mL (Klebsiella Pneumonia; Klebsiella pneumoniae, 0.4 mcg/ml, 37° C. overnight, read-out: amount of bacterial growth inhibition (first figure)): 24%
inhibition at 4 µg/mL (Klebsiella Pneumonia; Klebsiella pneumoniae, 4.0 mcg/ml, 37° C. overnight, read-out: amount of bacterial growth inhibition (first figure)): 26%
inhibition at 40 µg/mL (Klebsiella Pneumonia; Klebsiella pneumoniae, 40 mcg/ml, 37° C. overnight, read-out: amount of bacterial growth inhibition (first figure)): 40%
inhibition at 400 µg/mL (Klebsiella Pneumonia; Klebsiella pneumoniae, 400 mcg/ml, 37° C. overnight, read-out: amount of bacterial growth inhibition (first figure)): 92%
optical density at 660 nm (figure in parentheses) (Listeria Sp.; 0.04 mcg/ml): 0.59
optical density at 660 nm (figure in parentheses) (Listeria Sp.; 0.4 mcg/ml): 0.59
optical density at 660 nm (figure in parentheses) (Listeria Sp.; 4.0 mcg/ml): 0.59
optical density at 660 nm (figure in parentheses) (Listeria Sp.; 40 mcg/ml): 0.036
optical density at 660 nm (figure in parentheses) (Listeria Sp.; 400 mcg/ml): 0.00
inhibition at 0.04 µg/mL (Listeria Sp.; Listeria, 0.04 mcg/ml, 37° C. overnight, read-out: amount of bacterial growth inhibition (first figure)): 26%
inhibition at 0.4 µg/mL (Listeria Sp.; Listeria, 0.4 mcg/ml, 37° C. overnight, read-out: amount of bacterial growth inhibition (first figure)): 26%
inhibition at 4 µg/mL (Listeria Sp.; Listeria, 4.0 mcg/ml, 37° C. overnight, read-out: amount of bacterial growth inhibition (first figure)): 26%
inhibition at 40 µg/mL (Listeria Sp.; Listeria, 40 mcg/ml, 37° C. overnight, read-out: amount of bacterial growth inhibition (first figure)): 92%
inhibition at 400 µg/mL (Listeria Sp.; Listeria, 400 mcg/ml, 37° C. overnight, read-out: amount of bacterial growth inhibition (first figure)): 100%
optical density at 660 nm (figure in parentheses) (Pseudomonas Sp.; 0.04 mcg/ml): 0.52
optical density at 660 nm (figure in parentheses) (Pseudomonas Sp.; 0.4 mcg/ml): 0.35
optical density at 660 nm (figure in parentheses) (Pseudomonas Sp.; 4.0 mcg/ml): 0.13
optical density at 660 nm (figure in parentheses) (Pseudomonas Sp.; 40 mcg/ml): 0.11
optical density at 660 nm (figure in parentheses) (Pseudomonas Sp.; 400 mcg/ml): 0.11
inhibition at 0.04 µg/mL (Pseudomonas Sp.; Pseudomonas, 0.04 mcg/ml, 37° C. overnight, read-out: amount of bacterial growth inhibition (first figure)): 30%
inhibition at 0.4 µg/mL (Pseudomonas Sp.; Pseudomonas, 0.4 mcg/ml, 37° C. overnight, read-out: amount of bacterial growth inhibition (first figure)): 45%
inhibition at 4 µg/mL (Pseudomonas Sp.; Pseudomonas, 4.0 mcg/ml, 37° C. overnight, read-out: amount of bacterial growth inhibition (first figure)): 75%
inhibition at 40 µg/mL (Pseudomonas Sp.; Pseudomonas, 40 mcg/ml, 37° C. overnight, read-out: amount of bacterial growth inhibition (first figure)): 75%
inhibition at 400 µg/mL (Pseudomonas Sp.; Pseudomonas, 400 mcg/ml, 37° C. overnight, read-out: amount of bacterial growth inhibition (first figure)): 78%
optical density at 660 nm (figure in parentheses) (Staphylococcus Sp.; 0.04 mcg/ml): 0.52
optical density at 660 nm (figure in parentheses) (Staphylococcus Sp.; 0.4 mcg/ml): 0.02
optical density at 660 nm (figure in parentheses) (Staphylococcus Sp.; 4.0 mcg/ml): 0.018
optical density at 660 nm (figure in parentheses) (Staphylococcus Sp.; 40 mcg/ml): 0.03
optical density at 660 nm (figure in parentheses) (Staphylococcus Sp.; 400 mcg/ml): 0.00
inhibition at 0.04 µg/mL (Staphylococcus Sp.; Staphylococcus, 0.04 mcg/ml, 37° C. overnight, read-out: amount of bacterial growth inhibition (first figure)): 30%
inhibition at 0.4 µg/mL (Staphylococcus Sp.; Staphylococcus, 0.4 mcg/ml, 37° C. overnight, read-out: amount of bacterial growth inhibition (first figure)): 95%
inhibition at 4 µg/mL (Staphylococcus Sp.; Staphylococcus, 4.0 mcg/ml, 37° C. overnight, read-out: amount of bacterial growth inhibition (first figure)): 96%
inhibition at 40 µg/mL (Staphylococcus Sp.; Staphylococcus, 40 mcg/ml, 37° C. overnight, read-out: amount of bacterial growth inhibition (first figure)): 94%
inhibition at 400 µg/mL (Staphylococcus Sp.; Staphylococcus, 400 mcg/ml, 37° C. overnight, read-out: amount of bacterial growth inhibition (first figure)): 100%
optical density at 660 nm (figure in parentheses) (TA100 (Salmonella Sp.); 0.04 mcg/ml): 0.34
optical density at 660 nm (figure in parentheses) (TA100 (Salmonella Sp.); 0.4 mcg/ml): 0.11
optical density at 660 nm (figure in parentheses) (TA100 (Salmonella Sp.); 4.0 mcg/ml): 0.97
optical density at 660 nm (figure in parentheses) (TA100 (Salmonella Sp.); 40 mcg/ml): 0.97
optical density at 660 nm (figure in parentheses) (TA100 (Salmonella Sp.); 400 mcg/ml): 0.02
inhibition at 0.04 µg/mL (TA100 (Salmonella Sp.); Salmonella, 0.04 mcg/ml, 37° C. overnight, read-out: amount of bacterial growth inhibition (first figure)): 46%
inhibition at 0.4 µg/mL (TA100 (Salmonella Sp.); Salmonella, 0.4 mcg/ml, 37° C. overnight, read-out: amount of bacterial growth inhibition (first figure)): 78%
inhibition at 4 µg/mL (TA100 (Salmonella Sp.); Salmonella, 4.0 mcg/ml, 37° C. overnight, read-out: amount of bacterial growth inhibition (first figure)): 80%
inhibition at 40 µg/mL (TA100 (Salmonella Sp.); Salmonella, 40 mcg/ml, 37° C. overnight, read-out: amount of bacterial growth inhibition (first figure)): 80%
inhibition at 400 µg/mL (TA100 (Salmonella Sp.); Salmonella, 400 mcg/ml, 37° C. overnight, read-out: amount of bacterial growth inhibition (first figure)): 95%
optical density at 660 nm (figure in parentheses) (W3100 (E. coli)): 0.48
